From the NIST ThermoML archive (doi:10.1016/j.jct.2018.05.019)

Conditions: 101.33 kPa, Liquid, transient hot wire

CCCCC(=O)OC [methyl pentanoate]
Conditions | thermal conductivity [W/m/K]
285.55 K | 0.143
290.39 K | 0.1405
295.51 K | 0.1385
298.99 K | 0.1373
305.5 K | 0.1356
312.35 K | 0.1336
320.42 K | 0.1313
327.35 K | 0.1295
333.5 K | 0.1272
340.41 K | 0.1246
348.36 K | 0.1229
355.39 K | 0.1212
362.16 K | 0.1194

CCCCCCCCC(=O)OC [methyl nonanoate]
Conditions | thermal conductivity [W/m/K]
278.44 K | 0.1448
283.5 K | 0.1441
288.5 K | 0.1428
293.36 K | 0.1418
298.3 K | 0.141
303.31 K | 0.1393
308.24 K | 0.1387
313.3 K | 0.1371
318.29 K | 0.1365
323.25 K | 0.1347
328.25 K | 0.1337
333.06 K | 0.1327
338.16 K | 0.1313
343.23 K | 0.1299
348.07 K | 0.1289
353.12 K | 0.1277
358.24 K | 0.1263
363.07 K | 0.1256
368.1 K | 0.1242
373.11 K | 0.1227
378.24 K | 0.1213
383.21 K | 0.1207

CCCC(=O)OC [methyl butanoate]
Conditions | thermal conductivity [W/m/K]
283.34 K | 0.1459
288.3 K | 0.1442
293.39 K | 0.1416
297.41 K | 0.1401
298.44 K | 0.1397
301.3 K | 0.1391
305.42 K | 0.1372
309.31 K | 0.136
313.29 K | 0.1353
318.38 K | 0.1333
323.35 K | 0.1314
328.55 K | 0.1295
333.25 K | 0.128
338.4 K | 0.1261
343.25 K | 0.1249
348.24 K | 0.1233
353.35 K | 0.1215
358.18 K | 0.1207

CCCCCC(=O)OC [methyl hexanoate]
Conditions | thermal conductivity [W/m/K]
263.83 K | 0.1482
268.65 K | 0.1472
273.7 K | 0.1448
278.59 K | 0.1439
283.75 K | 0.142
288.67 K | 0.1405
293.64 K | 0.1395
298.72 K | 0.1376
303.63 K | 0.1367
308.61 K | 0.1344
313.6 K | 0.1336
321.08 K | 0.1315
328.54 K | 0.1301
333.52 K | 0.1284
338.55 K | 0.1269
343.49 K | 0.1259
348.48 K | 0.1243
353.7 K | 0.1231
358.38 K | 0.1219
363.41 K | 0.1205
368.5 K | 0.1191

CCCCCCCC(=O)OC [methyl octanoate]
Conditions | thermal conductivity [W/m/K]
273.56 K | 0.145
278.48 K | 0.1446
283.44 K | 0.1428
288.35 K | 0.1423
293.42 K | 0.1405
298.33 K | 0.1395
303.21 K | 0.1387
308.29 K | 0.1374
313.29 K | 0.1361
318.22 K | 0.1348
323.2 K | 0.1335
328.3 K | 0.132
333.41 K | 0.1304
338.32 K | 0.1294
343.27 K | 0.1285
348.12 K | 0.1275
353.23 K | 0.126
358.28 K | 0.1246
363.09 K | 0.1238
368.27 K | 0.1223
373.24 K | 0.1212
378.21 K | 0.1196
383.17 K | 0.1189
388.44 K | 0.1173
393.54 K | 0.116

O [water]
Conditions | thermal conductivity [W/m/K]
293.09 K | 0.6056
299.55 K | 0.613
309.83 K | 0.6313
314.96 K | 0.6399
319.56 K | 0.6399
324.64 K | 0.6492
332.53 K | 0.6555
339.33 K | 0.657
340.41 K | 0.6654
349.41 K | 0.6723

CCO [ethanol]
Conditions | thermal conductivity [W/m/K]
276.51 K | 0.1719
280.8 K | 0.1687
284.27 K | 0.1699
290.37 K | 0.1677
293.43 K | 0.1658
